Laboratory results: patent US20240299384A1, “METHODS FOR TREATING PULMONARY HYPERTENSION IN PATIENTS WITH LEFT VENTRICULAR ASSIST DEVICE IMPLANTATION” (ACTELION PHARMACEUTICALS LTD, priority 2021, published 2024)

Key:
[1] = humans, cited from earlier work
[2] = test system: patients with PH post-LVAD implantation; assay: Phase 2 study in PH post-LVAD implantation: change in WHO functional class; assay type: in vivo, human
Procedure: (§1) This is a double-blind, placebo-controlled, multicenter, parallel-group Phase 2 study assessing the efficacy and safety of macitentan in PH post-LVAD implantation. Approximately 57 adult patients with PH post-LVAD implantation were randomized (1:1) to receive either macitentan 10 mg, or matching placebo, once daily orally.
Change from Baseline to Week 12 in WHO FC. See, Table 10.
WHO FC is summarized by time point and treatment group using frequency tables. Changes from Baseline in WHO FC are dichotomized as worsening (i.e., change >0) versus no change or improvement (i.e., change≤0). Worsening is analyzed using a logistic regression model with covariates for treatment group and WHO FC.

[3] = test system: patients with PH post-LVAD implantation; assay: Phase 2 placebo-controlled study in PH post-LVAD implantation: right heart catheterization hemodynamics (PVR by thermodilution); assay type: in vivo, human
Procedure: as §1
After implantation of the LVAD, patients meet baseline hemodynamic criteria of PH via RHC during the last measurement prior to the first dose of drug, defined as mPAP≥25 mmHg at rest and PAWP≤18 mmHg and PVR>3 WU. Patients are randomized within 90 days of surgical implantation of LVAD and within 14 days of Baseline RHC.
• (i) Primary efficacy endpoint: The primary efficacy endpoint is PVR ratio of Week 12 to Baseline. PVR is obtained by the thermodilution method. See, Table 7 for the FAS, Table 8 for the ES, and Table 9 for the PPS.
An RHC conducted prior to signing the Informed Consent may be accepted as the Baseline RHC. Baseline RHC is performed by the thermodilution method, after LVAD implantation and prior to first dose of treatment (which occurs within 90 days post-surgical implantation of LVAD). Randomization (Visit 2) is within 14 days of Baseline RHC. Patients are excluded if they were treated with ERAs, PDE5 inhibitors, i.v., s.c., or oral prostanoids, or guanylate cyclase stimulators within 7 days prior to Baseline RHC or treatment initiation. Patients are excluded if they were treated with inhaled prostanoids (e.g., iloprost, epoprostenol), nitric oxide or i.v. inotropes or vasopressors within 24 h prior to Baseline RHC or treatment initiation. LVAD pump speed/flow rate may be adjusted during the treatment period and during the Baseline RHC.
An RHC is repeated at Week 12, or within 7 days of permanent discontinuation of treatment if prior to Week 12. The Week 12 RHC is performed by the thermodilution method, and not within 24 h of treatment with i.v. inotropes or vasopressors.
The following variables also are measured: pulse rate, PAWP, mRAP, systolic/diastolic/mean PAP, CO, and SVO2 and non-invasive mean, SBP and DBP if available. PVR is calculated. CO measurements, and PVR calculations, during both Baseline and Week 12 RHC is obtained via the thermodilution method. All primary end point calculations is based on thermodilution method-calculated PVR.
The following hemodynamic variables are calculated: PVR, TPR, and CI.
The primary efficacy variable is PVR ratio of Week 12 to Baseline. PVR [WU] is calculated as (mPAP-PAWP)/CO.
The ratio of Week 12 to Baseline PVR is log-transformed (base e) and analyzed using an analysis of covariance (ANCOVA) with a factor for treatment group and a covariate for Baseline log PVR (macitentan vs. placebo). The treatment group difference (on log scale) and its 95% CLs are estimated based on the model. The geometric mean ratio (GMR; macitentan vs. placebo) and its 95% confidence interval are obtained by exponentiation. The null hypothesis is rejected if the entire 95% confidence interval is below one.
The treatment effect is expressed as (GMR-1)×100%, where a negative value indicates a reduction of PVR in the macitentan group as compared to the placebo group.

[4] = cited from earlier work
[5] = test system: patients with PH post-LVAD implantation; assay: Phase 2 study in PH post-LVAD implantation: serum NT-proBNP; assay type: in vivo, human; conditions: 10 mg once daily
Procedure: as §1
A blood sample is drawn at Randomization (Visit 2) and EOT (Visit 5) for the analysis of serum NT-proBNP. See, Table 12 for serum NT-proBNP at Week 12 compared to baseline for the FAS.
NT-proBNP is summarized by time point and treatment group using descriptive statistics as well as geometric means and CVs. The ratio of Week 12 to Baseline NT-proBNP is summarized similarly. The ratio versus Baseline in NT-proBNP is log-transformed and analyzed using an ANCOVA with covariates for treatment group and Baseline log NT-proBNP.

[6] = FAS, N = 25, baseline to Week 12
[7] = 10 mg once daily, Week 12: Baseline, FAS, n 27
[8] = 10 mg once daily, post-hoc analysis
[9] = PVR calculated by programming, ES sensitivity analysis, 10 mg once daily, Week 12
[10] = PVR calculated by programming, PPS sensitivity analysis, 10 mg once daily, Week 12
[11] = PVR calculated by programming, primary analysis, FAS, 10 mg once daily, Week 12
[12] = PVR reported by INV, sensitivity analysis, FAS, 10 mg once daily, Week 12

CCCNS(=O)(=O)Nc1ncnc(OCCOc2ncc(Br)cn2)c1-c1ccc(Br)cc1 [Macitentan, propylsulfamic acid [5-(4-bromo-phenyl)-6-[2-(5-bromo-pyrimidin-2-yloxy)-ethoxy]-pyrimidin-4-yl]-amide]
time to steady state ([1]; 10 mg oral dose once a day): third day | absorption into the plasma [1]: absorbed slowly | half-life [1]: about 16 hours | WHO FC Improvement (change < 0), number of patients [2, 6]: 10 | WHO FC Improvement (change < 0), percent of patients [2, 6]: 40.0% | WHO FC No change (change = 0), number of patients [2, 6]: 13 | WHO FC No change (change = 0), percent of patients [2, 6]: 52.0% | WHO FC Worsening (change > 0), number of patients [2, 6]: 2 | WHO FC Worsening (change > 0), percent of patients [2, 6]: 8.0% | Change in WHO FC, Odds Ratio Macitentan relative to Placebo (95% Confidence Interval) ([2]; ordered logistic regression adjusting for baseline, higher OR = better change): 1.333 (0.417, 4.255) | DPG, Least squares mean change from baseline ([3]; 10 mg once daily, Day 84 or EOT, FAS, n 23): −6.0383 mmHg | TPG, Least squares mean change from baseline ([3]; 10 mg once daily, Day 84 or EOT, FAS, n 24): −7.6521 mmHg | Change in CI, Comparison to Placebo, Difference of least squares mean ([3]; 10 mg once daily, FAS): 0.1209 L/min/m^2 | Change in CO, Comparison to Placebo, Difference of least squares mean ([3]; 10 mg once daily, FAS): 0.2064 L/min | Change in DPG, Comparison to Placebo, Difference of least squares mean ([3]; 10 mg once daily, FAS): −2.7136 mmHg | Change in PAWP, Comparison to Placebo, Difference of least squares mean ([3]; 10 mg once daily, FAS): 2.3514 mmHg | Change in SvO2, Comparison to Placebo, Difference of least squares mean ([3]; 10 mg once daily, FAS): 0.4285% | Change in TPG, Comparison to Placebo, Difference of least squares mean ([3]; 10 mg once daily, FAS): −2.7022 mmHg | Change in TPR, Comparison to Placebo, Difference of least squares mean ([3]; 10 mg once daily, FAS): −0.4422 mmHg min/L | mPAP (end-expiratory mean line), Comparison to Placebo, Difference of least squares mean ([3]; 10 mg once daily, FAS): −0.3052 mmHg | mRAP, Comparison to Placebo, Difference of least squares mean ([3]; 10 mg once daily, FAS): 2.1396 mmHg | DPG at Day 84 or EOT, mean (SD) ([3]; 10 mg once daily, FAS, n 23): 3.87 (5.619) mmHg | Change in CI at Day 84 or EOT compared to Baseline, Least squares mean ([3]; 10 mg once daily, FAS, n 24): 0.1284 L/min/m^2 | Change in CO at Day 84 or EOT compared to Baseline, Least squares mean ([3]; 10 mg once daily, FAS, n 24): 0.3655 L/min | Change in PAWP at Day 84 or EOT compared to Baseline, Least squares mean ([3]; 10 mg once daily, FAS, n 24): 3.4038 mmHg | Change in SvO2 at Day 84 or EOT compared to Baseline, Least squares mean ([3]; 10 mg once daily, FAS, n 24): 4.7801% | Change in TPR at Day 84 or EOT compared to Baseline, Least squares mean ([3]; 10 mg once daily, FAS, n 24): −1.4175 mmHg min/L | PVR at Week 12/EOT, Mean (std) ([3]; 10 mg once daily, FAS, n 24): 2.555 (1.0607) WU | PVR at Week 12/EOT, Median ([3]; 10 mg once daily, FAS, n 24): 2.644 WU | TPG at Day 84 or EOT, mean (SD) ([3]; 10 mg once daily, FAS, n 24): 12.13 (4.902) mmHg | mPAP (end-expiratory mean line), change from baseline, Least squares mean ([3]; 10 mg once daily, FAS, n 24): −4.2251 mmHg | mRAP, change from baseline, Least squares mean ([3]; 10 mg once daily, FAS, n 24): 0.6222 mmHg | Change in mPAP at Day 84 or EOT compared to Baseline, Least squares mean ([3]; 10 mg once daily, FAS, n 24, second mPAP section of Table 11): −4.8854 mmHg | Change in TPG, Comparison to Placebo, Difference of least squares mean ([3]; 10 mg once daily, FAS, listed as macitentan): −2.7 mmHg | Change in mPAP, Comparison to Placebo, Difference of least squares mean ([3]; 10 mg once daily, FAS, second mPAP section of Table 11): −1.3035 mmHg | reduction in PVR for macitentan vs placebo ([3]; 10 mg once daily, Week 12): 26% | PVR Ratio to Baseline, Mean (std) [3, 7]: 0.585 (0.2280) | PVR Ratio to Baseline, Median [3, 7]: 0.573 | patients with postbaseline PVR<3 WU, number [3, 8]: 16 | patients with postbaseline PVR<3 WU, percent [3, 8]: 66.7% | PVR (Geometric mean ratio − 1) × 100% [3, 9]: −26.3% | PVR Geometric Mean Ratio, comparison to placebo [3, 9]: 0.7371 | PVR (Geometric mean ratio − 1) × 100% [3, 10]: −37.6% | PVR Geometric Mean Ratio, comparison to placebo [3, 10]: 0.6236 | PVR (Geometric mean ratio − 1) × 100% [3, 11]: −26.1% | PVR Geometric Mean Ratio, comparison to placebo [3, 11]: 0.7393 | PVR Geometric Mean Ratio, comparison to placebo ([3]; PVR calculated by programming, primary analysis, FAS, 10 mg once daily, Week 12, listed as macitentan): 0.74 | PVR (Geometric mean ratio − 1) × 100% [3, 12]: −26.1% | PVR Geometric Mean Ratio, comparison to placebo [3, 12]: 0.7386 | effect on PVR in words ([3]; early post-LVAD population): significantly reduced PVR | LV filling in words ([3]; from PAWP and CO data): improved LV filling | proportion with postbaseline PVR<3 WU ([3]; patients with baseline PVR<4 WU, n=10): 90.0% | proportion with postbaseline PVR<3 WU ([3]; patients with baseline PVR>4 WU, n=14): 50.0% | Flushing/feeling of warmth/redness of face and/or hands, Frequency observed with macitentan 10 mg [4]: Uncommon | Headache, Frequency observed with macitentan 10 mg [4]: Very | Photophobia, Frequency observed with macitentan 10 mg [4]: Not known | Sinusitis/rhinitis/nasal congestion, Frequency observed with macitentan 10 mg [4]: Common | NT-proBNP at Week 12/EOT, Mean (std) ([5]; FAS, n 22): 2435.4 (2620.75) ng/L | NT-proBNP at Week 12/EOT, Median ([5]; FAS, n 22): 1098.0 ng/L | NT-proBNP (Geometric mean ratio − 1) × 100% ([5]; Week 12, FAS): 10.9% | NT-proBNP, Comparison to Placebo, Geometric Mean Ratio ([5]; Week 12, FAS): 1.1086 | NT-proBNP Ratio to Baseline, Mean (std) ([5]; Week 12: Baseline, FAS, n 22): 0.8 (0.57) | NT-proBNP Ratio to Baseline, Median ([5]; Week 12: Baseline, FAS, n 22): 0.6
